{"source": "patent US7767659B2", "about": "“Synthesis of naturally occurring ecteinascidins and related compounds” (Pharma Mar, S.A., priority 2002, dated 2010)", "key": {"[1]": {"test_system": "A-549", "assay": "cells", "conditions": "Homo sapiens, A549, 48 h; for GI50: read-out: A549 GI50; for CC50: read-out: A549 LC50; for IC (TGI): read-out: A549 TGI", "summary_of_the_method": "(§1)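 Colorimetric SRB read (490 nm) on triplicate wells after 48 h at 37 °C, 5% CO2. Dose range 10 to 10^−8 μg/ml; 5×10^3 cells/well pre-attached 18 h.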"}, "[2]": {"test_system": "HT-29", "assay": "cells", "conditions": "Homo sapiens, HT-29, 48 h; for GI50: read-out: HT29 GI50; for CC50: read-out: HT29 LC50; for IC (TGI): read-out: HT29 TGI", "summary_of_the_method": "as §1"}, "[3]": {"test_system": "LoVo", "assay": "cells", "conditions": "Homo sapiens, LoVo, 48 h; for GI50: read-out: LOVO GI50; for CC50: read-out: LOVO LC50; for IC (TGI): read-out: LOVO TGI", "summary_of_the_method": "as §1"}, "[4]": {"test_system": "LNCaP", "assay": "Inhibition of cells growth by colorimetric assay (SRB)", "conditions": "Homo sapiens, LNCaP, 48 h; for GI50: read-out: LNCAP GI50; for CC50: read-out: LNCAP LC50; for IC (TGI): read-out: LNCAP TGI", "summary_of_the_method": "as §1"}, "[5]": {"test_system": "SK-BR-3", "assay": "Inhibition of cells growth by colorimetric assay (SRB)", "conditions": "Homo sapiens, SK-BR-3, 48 h; for GI50: read-out: SK-BR3 GI50; for CC50: read-out: SK-BR3 LC50; for IC (TGI): read-out: SK-BR3 TGI", "summary_of_the_method": "as §1"}, "[6]": {"test_system": "IGROV-ET", "assay": "Inhibition of cells growth by colorimetric assay (SRB)", "conditions": "Homo sapiens, 48 h; for GI50: read-out: IGROV-ET GI50; for CC50: read-out: IGROV-ET LC50; for IC (TGI): read-out: IGROV-ET TGI", "summary_of_the_method": "as §1"}, "[7]": {"test_system": "HeLa", "assay": "Inhibition of cells growth by colorimetric assay (SRB)", "conditions": "Homo sapiens, HeLa, 48 h; for GI50: read-out: HELA GI50; for CC50: read-out: HELA LC50; for IC (TGI): read-out: HELA TGI", "summary_of_the_method": "as §1"}, "[8]": {"test_system": "K-562", "assay": "Inhibition of cells growth by colorimetric assay (SRB)", "conditions": "Homo sapiens, K562, 48 h; for GI50: read-out: K562 GI50; for CC50: read-out: K562 LC50; for IC (TGI): read-out: K562 TGI", "summary_of_the_method": "as §1"}, "[9]": {"test_system": "PANC-1", "assay": "Inhibition of cells growth by colorimetric assay (SRB)", "conditions": "Homo sapiens, PANC-1, 48 h; for GI50: read-out: PANC-1 GI50; for CC50: read-out: PANC-1 LC50; for IC (TGI): read-out: PANC-1 TGI", "summary_of_the_method": "as §1"}, "[10]": {"test_system": "LoVo-Dox", "assay": "Inhibition of cells growth by colorimetric assay (SRB)", "conditions": "Homo sapiens, 48 h; for GI50: read-out: LOVO-DOX GI50; for CC50: read-out: LOVO-DOX LC50; for IC (TGI): read-out: LOVO-DOX TGI", "summary_of_the_method": "as §1"}, "[11]": {"test_system": "DU-145", "assay": "Inhibition of cells growth by colorimetric assay (SRB)", "conditions": "Homo sapiens, DU-145, 48 h; for GI50: read-out: DU145 GI50; for CC50: read-out: DU145 LC50; for IC (TGI): read-out: DU145 TGI", "summary_of_the_method": "as §1"}, "[12]": {"test_system": "HeLa-APL", "assay": "Inhibition of cells growth by colorimetric assay (SRB)", "conditions": "Homo sapiens, 48 h; for GI50: read-out: HELA-APL GI50; for CC50: read-out: HELA-APL LC50; for IC (TGI): read-out: HELA-APL TGI", "summary_of_the_method": "as §1"}, "[13]": {"test_system": "IGROV-1", "assay": "Inhibition of cells growth by colorimetric assay (SRB)", "conditions": "Homo sapiens, IGROV-1, 48 h; for GI50: read-out: IGROV GI50; for CC50: read-out: IGROV LC50; for IC (TGI): read-out: IGROV TGI", "summary_of_the_method": "as §1"}, "[14]": {"test_system": "SK-MEL-28", "assay": "Inhibition of cells growth by colorimetric assay (SRB)", "conditions": "Homo sapiens, SK-MEL-28, 48 h; for GI50: read-out: MEL-28 GI50; for CC50: read-out: MEL-28 LC50; for IC (TGI): read-out: MEL-28 TGI", "summary_of_the_method": "as §1"}}}
{"smiles": "COc1cc2c(cc1O)CCN[C@]21CS[C@@H]2c3c(OC(=O)/C=C/c4ccccc4)c(C)c4c(c3[C@H](COC1=O)N1C2[C@@H]2N[C@@H](Cc3cc(C)c(OC)c(O)c32)[C@@H]1C#N)OCO4", "note": "(stereo partly drawn) [compound 51]", "values": [{"measurement": "GI50", "setting": "[1]", "value": 2.85, "unit": "nM"}, {"measurement": "CC50", "setting": "[1]", "value": 542, "unit": "nM"}, {"measurement": "IC (TGI)", "setting": "[1]", "value": 0.00659, "unit": "µM"}, {"measurement": "GI50", "setting": "[2]", "value": 5.24, "unit": "nM"}, {"measurement": "CC50", "setting": "[2]", "value": 0.0118, "unit": "µM"}, {"measurement": "IC (TGI)", "setting": "[2]", "value": 2.37, "unit": "µM"}, {"measurement": "GI50", "setting": "[3]", "value": 3.93, "unit": "nM"}, {"measurement": "CC50", "setting": "[3]", "value": 11.8, "unit": "µM"}, {"measurement": "IC (TGI)", "setting": "[3]", "value": 0.00886, "unit": "µM"}, {"measurement": "GI50", "setting": "[4]", "value": 2.31, "unit": "nM"}, {"measurement": "CC50", "setting": "[4]", "value": 6.82, "unit": "nM"}, {"measurement": "IC (TGI)", "setting": "[4]", "value": 3.96, "unit": "nM"}, {"measurement": "GI50", "setting": "[5]", "value": 5.05, "unit": "nM"}, {"measurement": "CC50", "setting": "[5]", "value": 11.8, "unit": "µM"}, {"measurement": "IC (TGI)", "setting": "[5]", "value": 0.344, "unit": "µM"}, {"measurement": "GI50", "setting": "[6]", "value": 43.6, "unit": "nM"}, {"measurement": "CC50", "setting": "[6]", "value": 11.8, "unit": "µM"}, {"measurement": "IC (TGI)", "setting": "[6]", "value": 0.118, "unit": "µM"}, {"measurement": "GI50", "setting": "[7]", "value": 3.43, "unit": "nM"}, {"measurement": "CC50", "setting": "[7]", "value": 15.5, "unit": "nM"}, {"measurement": "IC (TGI)", "setting": "[7]", "value": 0.00663, "unit": "µM"}, {"measurement": "GI50", "setting": "[8]", "value": 3.15, "unit": "nM"}, {"measurement": "CC50", "setting": "[8]", "value": 653, "unit": "nM"}, {"measurement": "IC (TGI)", "setting": "[8]", "value": 0.00775, "unit": "µM"}, {"measurement": "GI50", "setting": "[9]", "value": 3.53, "unit": "nM"}, {"measurement": "CC50", "setting": "[9]", "value": 520, "unit": "nM"}, {"measurement": "IC (TGI)", "setting": "[9]", "value": 0.00773, "unit": "µM"}, {"measurement": "GI50", "setting": "[10]", "value": 352, "unit": "nM"}, {"measurement": "CC50", "setting": "[10]", "value": 11.8, "unit": "µM"}, {"measurement": "IC (TGI)", "setting": "[10]", "value": 11.8, "unit": "µM"}, {"measurement": "GI50", "setting": "[11]", "value": 5.24, "unit": "nM"}, {"measurement": "CC50", "setting": "[11]", "value": 11.8, "unit": "µM"}, {"measurement": "IC (TGI)", "setting": "[11]", "value": 0.0163, "unit": "µM"}, {"measurement": "GI50", "setting": "[12]", "value": 3.49, "unit": "nM"}, {"measurement": "CC50", "setting": "[12]", "value": 10.9, "unit": "nM"}, {"measurement": "IC (TGI)", "setting": "[12]", "value": 0.00618, "unit": "µM"}, {"measurement": "GI50", "setting": "[13]", "value": 3.35, "unit": "nM"}, {"measurement": "CC50", "setting": "[13]", "value": 118, "unit": "µM"}, {"measurement": "IC (TGI)", "setting": "[13]", "value": 0.00645, "unit": "µM"}, {"measurement": "GI50", "setting": "[14]", "value": 2.71, "unit": "nM"}, {"measurement": "CC50", "setting": "[14]", "value": 7.94, "unit": "nM"}, {"measurement": "IC (TGI)", "setting": "[14]", "value": 0.00464, "unit": "µM"}]}
{"smiles": "CCCCCCCC(=O)Oc1c(C)c2c(c3c1[C@H]1SC[C@]4(NCCc5cc(O)c(OC)cc54)C(=O)OC[C@@H]3N3C1[C@@H]1N[C@@H](Cc4cc(C)c(OC)c(O)c41)[C@@H]3C#N)OCO2", "note": "(stereo partly drawn) [compound 52]", "values": [{"measurement": "GI50", "setting": "[1]", "value": 8.01, "unit": "nM"}, {"measurement": "CC50", "setting": "[1]", "value": 973, "unit": "nM"}, {"measurement": "IC (TGI)", "setting": "[1]", "value": 0.0578, "unit": "µM"}, {"measurement": "GI50", "setting": "[2]", "value": 6.14, "unit": "nM"}, {"measurement": "CC50", "setting": "[2]", "value": 7.78, "unit": "µM"}, {"measurement": "IC (TGI)", "setting": "[2]", "value": 1.25, "unit": "µM"}, {"measurement": "GI50", "setting": "[3]", "value": 9.17, "unit": "nM"}, {"measurement": "CC50", "setting": "[3]", "value": 0.0857, "unit": "µM"}, {"measurement": "IC (TGI)", "setting": "[3]", "value": 0.0296, "unit": "µM"}, {"measurement": "GI50", "setting": "[4]", "value": 2.39, "unit": "nM"}, {"measurement": "CC50", "setting": "[4]", "value": 9.06, "unit": "nM"}, {"measurement": "IC (TGI)", "setting": "[4]", "value": 4.66, "unit": "nM"}, {"measurement": "GI50", "setting": "[5]", "value": 6.18, "unit": "nM"}, {"measurement": "CC50", "setting": "[5]", "value": 11.9, "unit": "µM"}, {"measurement": "IC (TGI)", "setting": "[5]", "value": 0.258, "unit": "µM"}, {"measurement": "GI50", "setting": "[6]", "value": 39.5, "unit": "nM"}, {"measurement": "CC50", "setting": "[6]", "value": 8.53, "unit": "µM"}, {"measurement": "IC (TGI)", "setting": "[6]", "value": 0.119, "unit": "µM"}, {"measurement": "GI50", "setting": "[7]", "value": 5.98, "unit": "nM"}, {"measurement": "CC50", "setting": "[7]", "value": 1850, "unit": "nM"}, {"measurement": "IC (TGI)", "setting": "[7]", "value": 0.0225, "unit": "µM"}, {"measurement": "GI50", "setting": "[8]", "value": 4.51, "unit": "nM"}, {"measurement": "CC50", "setting": "[8]", "value": 80.6, "unit": "nM"}, {"measurement": "IC (TGI)", "setting": "[8]", "value": 0.0213, "unit": "µM"}, {"measurement": "GI50", "setting": "[9]", "value": 21.5, "unit": "nM"}, {"measurement": "CC50", "setting": "[9]", "value": 610, "unit": "nM"}, {"measurement": "IC (TGI)", "setting": "[9]", "value": 0.0624, "unit": "µM"}, {"measurement": "GI50", "setting": "[10]", "value": 273, "unit": "nM"}, {"measurement": "CC50", "setting": "[10]", "value": 11.9, "unit": "µM"}, {"measurement": "IC (TGI)", "setting": "[10]", "value": 11.9, "unit": "µM"}, {"measurement": "GI50", "setting": "[11]", "value": 4.92, "unit": "nM"}, {"measurement": "CC50", "setting": "[11]", "value": 5.14, "unit": "µM"}, {"measurement": "IC (TGI)", "setting": "[11]", "value": 0.0193, "unit": "µM"}, {"measurement": "GI50", "setting": "[12]", "value": 7.05, "unit": "nM"}, {"measurement": "CC50", "setting": "[12]", "value": 92.3, "unit": "nM"}, {"measurement": "IC (TGI)", "setting": "[12]", "value": 0.0214, "unit": "µM"}, {"measurement": "GI50", "setting": "[13]", "value": 7.32, "unit": "nM"}, {"measurement": "CC50", "setting": "[13]", "value": 3.06, "unit": "µM"}, {"measurement": "IC (TGI)", "setting": "[13]", "value": 0.0433, "unit": "µM"}, {"measurement": "GI50", "setting": "[14]", "value": 4.07, "unit": "nM"}, {"measurement": "CC50", "setting": "[14]", "value": 52.7, "unit": "nM"}, {"measurement": "IC (TGI)", "setting": "[14]", "value": 0.0155, "unit": "µM"}]}
